Laboratory results: ChEMBL document CHEMBL1201862, “PubChem BioAssay data set” (2004)
Active and inactive are the calls of the source.

Experiments:
[1] = target: T1, Short transient receptor potential channel 4 (Mus musculus, UniProt Q9QUQ5); test: block of DAMGO-driven TRPC4 calcium entry – cell-based, HEK293 TRPC4/mu-opioid, Fluo-4 calcium, dose response (AID 434942); assay type: functional;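 also: potency of inhibitors blocking the TRPC4 calcium response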
T1 sequence (Q9QUQ5 whole entry): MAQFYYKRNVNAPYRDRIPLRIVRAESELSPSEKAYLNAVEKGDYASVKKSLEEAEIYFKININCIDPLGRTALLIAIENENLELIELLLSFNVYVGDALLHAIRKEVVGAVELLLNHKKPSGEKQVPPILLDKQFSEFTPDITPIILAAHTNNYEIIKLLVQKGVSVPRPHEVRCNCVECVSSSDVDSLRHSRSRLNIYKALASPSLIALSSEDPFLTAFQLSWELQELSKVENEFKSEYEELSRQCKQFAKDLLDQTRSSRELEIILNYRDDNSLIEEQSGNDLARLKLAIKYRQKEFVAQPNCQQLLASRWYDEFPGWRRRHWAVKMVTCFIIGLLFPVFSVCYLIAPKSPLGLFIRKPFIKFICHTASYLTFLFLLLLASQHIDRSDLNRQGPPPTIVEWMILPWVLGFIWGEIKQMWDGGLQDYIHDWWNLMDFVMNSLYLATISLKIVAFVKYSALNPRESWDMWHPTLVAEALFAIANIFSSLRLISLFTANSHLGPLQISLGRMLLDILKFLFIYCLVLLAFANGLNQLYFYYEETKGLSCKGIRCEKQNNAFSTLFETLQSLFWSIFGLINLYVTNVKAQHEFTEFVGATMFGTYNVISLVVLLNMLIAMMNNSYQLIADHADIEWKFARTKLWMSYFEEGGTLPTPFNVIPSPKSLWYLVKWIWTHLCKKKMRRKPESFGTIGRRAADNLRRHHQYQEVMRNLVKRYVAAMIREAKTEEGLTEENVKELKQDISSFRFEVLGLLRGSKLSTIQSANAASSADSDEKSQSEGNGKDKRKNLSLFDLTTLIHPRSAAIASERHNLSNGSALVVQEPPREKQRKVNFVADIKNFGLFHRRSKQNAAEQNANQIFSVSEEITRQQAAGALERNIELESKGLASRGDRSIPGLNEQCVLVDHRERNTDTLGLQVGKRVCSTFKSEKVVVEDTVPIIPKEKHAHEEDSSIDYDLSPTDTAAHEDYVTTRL

[2] = luciferase reporter signal suppression in cells – H4 neuroglioma cells, luminescence, dose response (AID 1990); assay type: functional, cell-based
[3] = target: Peroxisome proliferator-activated receptor gamma/Nuclear receptor coactivator 3 (Homo sapiens, UniProt P37231); test: (§1) TR-FRET dose response biochemical High Throughput Screening assay for agonists of the steroid receptor coactivator 3 (SRC-3) recruitment by the peroxisome proliferator-activated receptor gamma (PPAR gamma): non-selective agonists. [Related pubchem assays: 1301 (Confirmation screen.), 1048 (Primary screen.)]; assay type: functional
[4] = target: Peroxisome proliferator-activated receptor gamma/Nuclear receptor coactivator 1 (Homo sapiens, UniProt P37231); test: as §1, with “1 (SRC-1)” for “3 (SRC-3)”, “assays (depositor defined):AID1300, AID1808, AID504735, AID631]” for “assays: 1301 (Confirmation screen.), 1048 (Primary screen.)]”; assay type: protein assay
[5] = target: Peroxisome proliferator-activated receptor gamma/Nuclear receptor coactivator 2 (Homo sapiens, UniProt P37231); test: TR-FRET dose response biochemical High Throughput Screening assay for agonists of the steroid receptor coactivator 2 (SRC-2) recruitment by the peroxisome proliferator-activated receptor gamma (PPAR gamma): non-selective agonists. [Related pubchem assays: 1297, 1032 ]; assay type: functional
[6] = Luminescence Cell-Based Dose Response HTS to Identify Inhibitors of 5'UTR Stem-Loop Driven Prion Protein mRNA Translation in H4 Neuroglioblastoma Cells. [Related pubchem assays: 1827 (Project Summary), 1813 (Primary HTS)]; assay type: functional
[7] = alpha-synuclein stem-loop luciferase translation blockers – H4 neuroglioma cells, luminescence, confirmation (AID 1988); assay type: functional, cell-based
[8] = target: Dual specificity tyrosine-phosphorylation-regulated kinase 1A (Rattus norvegicus, UniProt Q63470); assay type: biochemical, Homo sapiens
Cytochrome P450 2D6 = Cytochrome P450 2D6 (Homo sapiens, UniProt P10635);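 also: CYP2D6 member of a cytochrome P450 panel assay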
[9] = target: DNA dC->dU-editing enzyme APOBEC-3A (Homo sapiens, UniProt P31941); test: A3A deaminase inhibition for selectivity – biochemical, dose response (AID 504722); assay type: functional
[10] = target: DNA dC->dU-editing enzyme APOBEC-3G (Homo sapiens, UniProt Q9HC16); test: Dose Response confirmation of small molecule APOBEC3G DNA Deaminase Inhibitors via a fluorescence-based single-stranded DNA deaminase assay. [Related pubchem assays (depositor defined):AID493012, AID493028]; assay type: functional
[11] = target: T2, Voltage-gated N-type calcium channel alpha-1B subunit/Amyloid beta A4 precursor protein-binding family A member 1 (Homo sapiens, UniProt Q00975+Q02410); assay type: protein assay
[12] = target: T2, Voltage-gated N-type calcium channel alpha-1B subunit/Amyloid beta A4 precursor protein-binding family A member 1; assay type: protein assay; remark: listed apart in the source
Large T antigen = Large T antigen (Simian virus 40, UniProt P03070); assay type: functional, Betapolyomavirus macacae;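 also: Confirmatory-stage PubChem screen for compounds that inhibit SV40 T antigen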
[13] = target: FAD-linked sulfhydryl oxidase ALR (Homo sapiens, UniProt P55789); test: ALR-catalysed DTT oxidation blockers – biochemical, H2O2 detection, luminescence, cherry-pick, dose response (AID 493248)
[14] = target: T3, Carboxy-terminal domain RNA polymerase II polypeptide A small phosphatase 1 (Homo sapiens, UniProt Q9GZU7); test: CTDSP1 inhibitors, concentration-response, biochemical, absorbance readout, ultra-high-throughput screen actives (AID 540297); assay type: functional
T3 sequence (Q9GZU7 whole entry): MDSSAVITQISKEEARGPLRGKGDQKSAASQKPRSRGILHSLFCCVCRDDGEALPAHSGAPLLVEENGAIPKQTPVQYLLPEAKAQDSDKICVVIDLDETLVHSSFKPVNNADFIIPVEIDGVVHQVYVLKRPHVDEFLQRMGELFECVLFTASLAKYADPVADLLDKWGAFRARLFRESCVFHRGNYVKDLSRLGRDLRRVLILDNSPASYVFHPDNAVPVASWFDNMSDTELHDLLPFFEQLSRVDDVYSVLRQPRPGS

T2 sequence (Q00975 whole entry): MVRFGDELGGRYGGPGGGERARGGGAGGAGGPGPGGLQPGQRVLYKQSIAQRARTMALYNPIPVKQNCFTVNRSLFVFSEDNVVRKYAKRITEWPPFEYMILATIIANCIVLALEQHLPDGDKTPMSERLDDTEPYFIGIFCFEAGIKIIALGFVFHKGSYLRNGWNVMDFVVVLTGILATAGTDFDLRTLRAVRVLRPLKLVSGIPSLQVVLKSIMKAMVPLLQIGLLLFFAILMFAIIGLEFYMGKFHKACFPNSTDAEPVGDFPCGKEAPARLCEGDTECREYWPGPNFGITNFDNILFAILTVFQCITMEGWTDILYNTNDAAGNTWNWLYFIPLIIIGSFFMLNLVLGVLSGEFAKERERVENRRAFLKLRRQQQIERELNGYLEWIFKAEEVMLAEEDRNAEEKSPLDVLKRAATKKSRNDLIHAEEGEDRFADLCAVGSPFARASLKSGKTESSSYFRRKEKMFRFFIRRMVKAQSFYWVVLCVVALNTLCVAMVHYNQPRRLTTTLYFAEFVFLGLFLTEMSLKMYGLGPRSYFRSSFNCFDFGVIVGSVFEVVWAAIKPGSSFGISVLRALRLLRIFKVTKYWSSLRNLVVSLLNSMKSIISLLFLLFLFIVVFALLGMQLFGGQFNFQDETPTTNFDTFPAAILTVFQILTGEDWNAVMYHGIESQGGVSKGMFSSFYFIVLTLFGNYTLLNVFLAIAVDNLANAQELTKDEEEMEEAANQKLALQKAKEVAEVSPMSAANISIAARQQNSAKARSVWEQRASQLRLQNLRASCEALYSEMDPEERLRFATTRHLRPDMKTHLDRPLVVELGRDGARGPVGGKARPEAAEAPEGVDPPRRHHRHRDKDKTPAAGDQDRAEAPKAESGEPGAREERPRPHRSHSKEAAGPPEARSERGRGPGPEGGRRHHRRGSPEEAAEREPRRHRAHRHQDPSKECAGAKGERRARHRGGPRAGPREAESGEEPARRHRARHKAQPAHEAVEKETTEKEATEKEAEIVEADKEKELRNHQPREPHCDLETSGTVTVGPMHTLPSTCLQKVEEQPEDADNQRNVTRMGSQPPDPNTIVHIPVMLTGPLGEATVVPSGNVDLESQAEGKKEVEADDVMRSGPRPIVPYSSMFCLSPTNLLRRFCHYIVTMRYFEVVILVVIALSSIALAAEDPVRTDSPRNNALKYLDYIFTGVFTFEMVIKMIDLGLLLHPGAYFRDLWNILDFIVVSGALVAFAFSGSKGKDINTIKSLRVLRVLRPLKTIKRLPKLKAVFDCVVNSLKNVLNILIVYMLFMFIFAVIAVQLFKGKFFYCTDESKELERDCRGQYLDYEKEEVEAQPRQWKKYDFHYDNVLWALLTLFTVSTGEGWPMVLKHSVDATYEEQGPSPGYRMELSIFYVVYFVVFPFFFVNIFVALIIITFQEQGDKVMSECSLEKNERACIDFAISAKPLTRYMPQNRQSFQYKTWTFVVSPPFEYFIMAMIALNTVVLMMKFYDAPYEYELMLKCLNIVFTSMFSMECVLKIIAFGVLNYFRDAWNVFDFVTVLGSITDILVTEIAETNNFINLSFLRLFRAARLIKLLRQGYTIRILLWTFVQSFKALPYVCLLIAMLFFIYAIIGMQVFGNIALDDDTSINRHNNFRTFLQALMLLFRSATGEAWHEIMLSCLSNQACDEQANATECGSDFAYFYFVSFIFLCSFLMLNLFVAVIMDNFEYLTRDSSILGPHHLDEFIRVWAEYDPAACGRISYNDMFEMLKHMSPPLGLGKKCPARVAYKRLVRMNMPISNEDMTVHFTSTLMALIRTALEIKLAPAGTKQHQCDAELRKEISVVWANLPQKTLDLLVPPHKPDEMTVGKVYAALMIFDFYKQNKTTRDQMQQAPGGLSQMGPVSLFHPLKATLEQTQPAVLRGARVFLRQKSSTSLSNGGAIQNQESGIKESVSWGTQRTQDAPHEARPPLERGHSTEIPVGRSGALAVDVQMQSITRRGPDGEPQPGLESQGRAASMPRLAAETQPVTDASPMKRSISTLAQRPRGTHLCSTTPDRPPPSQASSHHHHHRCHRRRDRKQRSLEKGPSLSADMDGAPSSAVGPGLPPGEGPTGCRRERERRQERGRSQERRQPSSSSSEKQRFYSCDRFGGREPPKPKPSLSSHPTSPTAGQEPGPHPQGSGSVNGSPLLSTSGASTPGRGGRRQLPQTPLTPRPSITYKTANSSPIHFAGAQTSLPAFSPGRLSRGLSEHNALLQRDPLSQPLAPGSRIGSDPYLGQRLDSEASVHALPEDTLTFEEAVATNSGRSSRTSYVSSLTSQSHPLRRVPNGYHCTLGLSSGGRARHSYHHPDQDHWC
T2 sequence (Q02410 whole entry): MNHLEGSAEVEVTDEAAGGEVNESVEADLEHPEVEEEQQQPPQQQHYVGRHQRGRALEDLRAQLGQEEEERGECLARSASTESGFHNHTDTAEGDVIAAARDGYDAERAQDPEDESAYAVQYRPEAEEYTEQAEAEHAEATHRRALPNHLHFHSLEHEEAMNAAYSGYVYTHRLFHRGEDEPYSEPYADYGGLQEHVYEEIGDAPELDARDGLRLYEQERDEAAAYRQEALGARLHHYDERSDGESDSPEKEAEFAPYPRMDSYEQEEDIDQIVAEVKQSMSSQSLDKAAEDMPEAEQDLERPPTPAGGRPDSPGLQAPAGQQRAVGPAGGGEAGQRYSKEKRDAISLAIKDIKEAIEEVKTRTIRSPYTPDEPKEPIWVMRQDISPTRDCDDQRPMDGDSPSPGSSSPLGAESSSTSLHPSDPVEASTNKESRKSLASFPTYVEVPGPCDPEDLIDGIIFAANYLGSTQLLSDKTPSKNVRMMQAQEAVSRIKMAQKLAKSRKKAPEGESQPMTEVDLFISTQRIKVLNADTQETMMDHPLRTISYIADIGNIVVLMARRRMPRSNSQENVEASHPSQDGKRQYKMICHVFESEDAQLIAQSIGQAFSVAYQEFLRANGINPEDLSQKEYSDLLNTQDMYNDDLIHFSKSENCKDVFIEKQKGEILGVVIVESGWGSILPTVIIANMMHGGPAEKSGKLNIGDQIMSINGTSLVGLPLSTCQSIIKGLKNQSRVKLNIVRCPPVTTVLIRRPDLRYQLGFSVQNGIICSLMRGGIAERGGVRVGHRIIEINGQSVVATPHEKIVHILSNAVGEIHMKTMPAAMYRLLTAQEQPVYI
DNA dC->dU-editing enzyme APOBEC-3A, sequence (P31941 whole entry): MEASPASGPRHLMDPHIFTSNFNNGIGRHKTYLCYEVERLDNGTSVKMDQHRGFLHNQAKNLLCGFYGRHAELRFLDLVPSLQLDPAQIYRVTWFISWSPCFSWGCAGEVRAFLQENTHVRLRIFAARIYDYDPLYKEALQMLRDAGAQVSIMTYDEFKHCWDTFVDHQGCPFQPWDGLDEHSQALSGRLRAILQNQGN
DNA dC->dU-editing enzyme APOBEC-3G, sequence (Q9HC16 whole entry): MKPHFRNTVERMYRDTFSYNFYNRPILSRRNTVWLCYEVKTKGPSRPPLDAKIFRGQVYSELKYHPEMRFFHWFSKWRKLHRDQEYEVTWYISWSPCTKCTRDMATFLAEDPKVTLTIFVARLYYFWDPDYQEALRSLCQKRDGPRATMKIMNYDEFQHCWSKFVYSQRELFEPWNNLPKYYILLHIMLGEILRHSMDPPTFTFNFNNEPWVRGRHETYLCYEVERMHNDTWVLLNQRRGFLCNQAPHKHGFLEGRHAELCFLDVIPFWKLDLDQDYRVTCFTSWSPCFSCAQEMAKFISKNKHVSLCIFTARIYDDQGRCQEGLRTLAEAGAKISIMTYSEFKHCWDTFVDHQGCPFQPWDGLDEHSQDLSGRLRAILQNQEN
Cytochrome P450 2D6, sequence (P10635 whole entry): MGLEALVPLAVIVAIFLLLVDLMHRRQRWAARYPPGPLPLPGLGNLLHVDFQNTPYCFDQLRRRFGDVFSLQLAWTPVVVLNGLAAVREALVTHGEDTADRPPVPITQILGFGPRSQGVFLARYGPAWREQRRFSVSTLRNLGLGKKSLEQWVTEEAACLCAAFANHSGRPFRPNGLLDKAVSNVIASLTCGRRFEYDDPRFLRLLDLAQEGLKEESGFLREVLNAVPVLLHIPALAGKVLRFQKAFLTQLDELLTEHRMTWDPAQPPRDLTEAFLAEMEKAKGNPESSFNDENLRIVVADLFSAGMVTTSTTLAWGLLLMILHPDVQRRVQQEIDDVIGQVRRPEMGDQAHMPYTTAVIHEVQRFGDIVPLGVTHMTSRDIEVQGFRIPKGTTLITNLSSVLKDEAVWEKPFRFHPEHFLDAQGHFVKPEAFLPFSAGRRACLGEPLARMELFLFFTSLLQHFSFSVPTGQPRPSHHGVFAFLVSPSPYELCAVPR
Large T antigen, sequence (P03070 whole entry): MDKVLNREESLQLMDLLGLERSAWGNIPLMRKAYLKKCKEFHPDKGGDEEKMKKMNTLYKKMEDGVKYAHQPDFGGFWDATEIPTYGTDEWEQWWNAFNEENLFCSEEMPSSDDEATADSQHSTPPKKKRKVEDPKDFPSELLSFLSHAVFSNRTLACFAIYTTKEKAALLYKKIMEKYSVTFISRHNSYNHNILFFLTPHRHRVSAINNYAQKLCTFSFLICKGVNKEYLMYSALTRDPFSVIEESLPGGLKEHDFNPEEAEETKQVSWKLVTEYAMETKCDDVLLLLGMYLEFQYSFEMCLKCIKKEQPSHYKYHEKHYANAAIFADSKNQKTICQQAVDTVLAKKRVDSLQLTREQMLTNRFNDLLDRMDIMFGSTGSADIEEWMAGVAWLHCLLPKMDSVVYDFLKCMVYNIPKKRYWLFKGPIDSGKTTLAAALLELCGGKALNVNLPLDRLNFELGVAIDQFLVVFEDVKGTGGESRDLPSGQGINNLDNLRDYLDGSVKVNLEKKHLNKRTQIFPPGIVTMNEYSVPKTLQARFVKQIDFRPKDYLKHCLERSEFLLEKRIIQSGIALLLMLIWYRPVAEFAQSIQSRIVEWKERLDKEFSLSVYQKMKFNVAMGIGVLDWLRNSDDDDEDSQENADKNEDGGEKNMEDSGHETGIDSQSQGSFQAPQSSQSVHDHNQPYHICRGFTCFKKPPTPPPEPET

SMILES: CCCCNCC1C(Oc2ccc(Cl)cc2)C(=O)N1c1ccccc1C (stereo not drawn)
- EC50 [1]: 4.22 µM (active)

SMILES: CCCC1O[C@@H]2CC3C4CCC5=CC(=O)C=C[C@]5(C)C4C(OC(C)=O)C[C@]3(C)[C@]2(C(=O)COC(C)=O)O1 (stereo partly drawn)
- EC50 [2]: 22.1 µM (active)
- EC50 [3]: 4.66 µM (active)
- EC50 [4]: 6.65 µM (active)
- EC50 [5]: 8.71 µM (active)
- EC50 [6]: > 120 µM (not active)
- EC50 [7]: 18.8 µM (active)

SMILES: O=C1NC(=O)N(c2ccccc2)C(=O)/C1=C/c1c(-c2ccccc2)[nH]c2ccccc12
- AC50 [8]: 2.65 µM (active)

SMILES: Cn1c(=O)cc(SCC(=O)N2CCN(Cc3ccc4c(c3)OCO4)CC2)c2ccccc21
- EC50 [3]: > 79.4 µM (not active)
- EC50 [4]: > 79.4 µM (inactive)
- EC50 [5]: > 79.4 µM (not active)

SMILES: O=C(O)CCC(=O)c1ccc2ccc3cccc4ccc1c2c34
- AC50 (Cytochrome P450 2D6): inconclusive

SMILES: Cc1nnc(S)n1/N=C/c1c(O)ccc2ccccc12
- IC50 [9]: > 100 µM (inactive)
- IC50 [10]: 2.42 µM (active)

SMILES: O=C1C2C(C(=O)N1/N=C/c1ccc(N3CCCCC3)o1)C1C=CC2C12CC2 (stereo not drawn)
- IC50 [11]: 7.24 µM (active)
- IC50 [12]: 20.1 µM (active)

SMILES: COc1cc(/C=N/n2c(S)nnc2-c2[nH]nc3c2CCC3)cc(OC)c1O
- IC50 (Large T antigen): 24 µM (active)
- AC50 [13]: 0.011 µM (active)
- IC50 [9]: > 100 µM (inactive)
- IC50 [10]: 1.81 µM (active)

SMILES: COc1ccc([C@@H]2CC(=O)c3c(O)cc(O[C@@H]4O[C@H](CO[C@@H]5O[C@@H](C)[C@H](O)[C@@H](O)[C@H]5O)[C@@H](O)[C@H](O)[C@H]4O)cc3O2)cc1O [HESPERIDIN]
- IC50 [11]: 9.5 µM (active)
- IC50 [14]: 20.7 µM (active)
- IC50 [12]: > 50 µM (inactive)
